The results in this text go back to patent US20210037824A1, “HERBICIDAL MIXTURES” (BASF SE, priority 2018, published 2021).

Details in all cases: scale 0 to 100
Test [1] concerns STEME. In words: greenhouse pre-emergence herbicidal activity, STEME. It counts as in vivo, Stellaria media. An excerpt:
(§1) The seeds of the test plants were sown separately for each species. For the pre-emergence treatment, the active compounds, suspended or emulsified in water, were applied 1 day after sowing by means of finely distributing nozzles. The containers were irrigated gently to promote germination and growth and subsequently covered with transparent plastic hoods until the plants had rooted. This cover caused uniform germination of the test plants unless this was adversely affected by the active compounds. Depending on the species, the plants were kept at 10-25° C. and 20-35° C., respectively. The test period extended over 2 to 4 weeks. During this time, the plants were tended and their response to the individual treatments was evaluated. Evaluation was carried out using a scale from 0 to 100. 100 means no emergence of the plants, or complete destruction of at least the above-ground parts, and 0 means no damage or normal course of growth. A good herbicidal activity is given at values of at least 70, and very good herbicidal activity is given at values of at least 85. Trifludimoxazin was formulated as a 500 g/I suspension concentrate, the compound of formula (I) was formulated as a 50 g/I emulsifiable concentrate and, with addition of the amount of solvent system, introduced into the spray liquor used for applying the active compound. In the examples, the solvent used was water. In the examples below, using the method of S. R. Colby (1967) “Calculating synergistic and antagonistic responses of herbicide combinations”, Weeds 15, p. 22ff., the value E, which is expected if the activity of the individual active compounds is only additive, was calculated. E=X+Y−(X·Y/100) • where • X=percent activity using active compound A at an application rate a; • Y=percent activity using active compound B at an application rate b; • E=expected activity (in %) by A+B at application rates a+b. If the value found experimentally is higher than the value E calculated according to Colby, a synergistic effect is present.

The next test has as its system LOLMU. The experiment in a line: greenhouse pre-emergence herbicidal activity, LOLMU. The class given is in vivo, Lolium multiflorum. An excerpt:
(§2) The seeds of the test plants were sown separately for each species. For the pre-emergence treatment, the active compounds, suspended or emulsified in water, were applied 1 day after sowing by means of finely distributing nozzles. The containers were irrigated gently to promote germination and growth and subsequently covered with transparent plastic hoods until the plants had rooted. This cover caused uniform germination of the test plants unless this was adversely affected by the active compounds. Depending on the species, the plants were kept at 10-25° C. and 20-35° C., respectively. The test period extended over 2 to 4 weeks. During this time, the plants were tended and their response to the individual treatments was evaluated. Evaluation was carried out using a scale from 0 to 100. 100 means no emergence of the plants, or complete destruction of at least the above-ground parts, and 0 means no damage or normal course of growth. A good herbicidal activity is given at values of at least 70, and very good herbicidal activity is given at values of at least 85. […] 22ff., the value E, which is expected if the activity of the individual active compounds is only additive, was calculated. […] If the value found experimentally is higher than the value E calculated according to Colby, a synergistic effect is present.

Another test has as its system LAMPU. The experiment in a line: greenhouse pre-emergence herbicidal activity, LAMPU. It counts as in vivo, Lamium purpureum.
Source text: as §2

In the next test the test system is IPOHE. The experiment in a line: greenhouse post-emergence herbicidal activity, IPOHE. It counts as in vivo, Ipomoea hederacea. How it is done: (§3) The seeds of the test plants were sown separately for each species. For the post-emergence treatment, the test plants were grown to a plant height of from 3 to 15 cm, depending on the plant habit, and only then treated with the active compounds which had been suspended or emulsified in water. To this end, the test plants were either sown directly, and grown in the same containers, or they were first grown separately as seedlings and transplanted into the test containers one week prior to treatment. Depending on the species, the plants were kept at 10-25° C. and 20-35° C., respectively. The test period extended over 2 to 4 weeks. During this time, the plants were tended and their response to the individual treatments was evaluated. Evaluation was carried out using a scale from 0 to 100. 100 means no emergence of the plants, or complete destruction of at least the above-ground parts, and 0 means no damage or normal course of growth. A good herbicidal activity is given at values of at least 70, and very good herbicidal activity is given at values of at least 85. […] 22ff., the value E, which is expected if the activity of the individual active compounds is only additive, was calculated. […] If the value found experimentally is higher than the value E calculated according to Colby, a synergistic effect is present.

Test [2] has as its system STEME. The experiment in a line: greenhouse post-emergence herbicidal activity, STEME. It counts as in vivo, Stellaria media. How it is done:
as §3

In another test the test system is MATIN. In words: greenhouse pre-emergence herbicidal activity, MATIN. It counts as in vivo, Matricaria inodora.
Source text: as §2

The test system of a further test is GERDI. The experiment in a line: greenhouse pre-emergence herbicidal activity, GERDI. The class given is in vivo, Geranium dissecium.
Source text: as §1

A further test has as its system AVEFA. The experiment in a line: greenhouse pre-emergence herbicidal activity, AVEFA. The class given is in vivo, Avena fatua.
Source text: as §2

Another test deals with ALOMY. In words: greenhouse pre-emergence herbicidal activity, ALOMY. The class given is in vivo, Alopercurus myosuroides.
Source text: as §2

In another test the test system is POLCO. In words: greenhouse pre-emergence herbicidal activity, POLCO. It counts as in vivo, Polygonum convolvulus.
Source text: as §1

The subject of another test is GALAP. In words: greenhouse pre-emergence herbicidal activity, GALAP. It counts as in vivo, Galium aparine.
Source text: as §2

The mark [3] stands for this setting: Example 7, compound (I) 15.63 g/ha a.s. alone.
Setting [4] is: Example 8, compound (I) 7.81 g/ha a.s. alone.
Setting [5] is: Example 3, compound (I) 31.25 g/ha a.s. alone.
Setting [6] is: Example 6, compound (I) 15.63 g/ha a.s. alone.
[7] abbreviates: Example 2, compound (I) 62.5 g/ha a.s. alone.
Where [8] appears, read: Example 1, compound (I) 15.625 g/ha a.s. alone.
Where [9] appears, read: Example 7, trifludimoxazin 0.25 g/ha a.s. alone.
The mark [10] stands for this setting: Example 8, trifludimoxazin 0.25 g/ha a.s. alone.
The mark [11] stands for this setting: Example 3, trifludimoxazin 4.5 g/ha a.s. alone.
[12] abbreviates: Example 6, trifludimoxazin 0.5 g/ha a.s. alone.
[13] abbreviates: Example 2, trifludimoxazin 4.5 g/ha a.s. alone.
Where [14] appears, read: Example 1, trifludimoxazin 9 g/ha a.s. alone.

Regarding `CC1(C)CON(Cc2ccc(Cl)cc2Cl)C1=O` [(I), 2-(2,4-dichlorophenyl)methyl-4,4-dimethyl-3-isoxazolidone], the “herbicidal activity against STEME found” value with STEME [1] (setting [3]) was 83%; in the test with STEME [1] (setting [4]) it was 85%; with STEME [2] (setting [6]), 83%. Besides, in the test with LOLMU (Example 4, compound (I) 125 g/ha a.s. alone), the “herbicidal activity against LOLMU found” value is 65%. Also, the “herbicidal activity against LAMPU found” value in the test with LAMPU (setting [5]) stood at 0%. Also, the “herbicidal activity against IPOHE found” value in the test on IPOHE (setting [6]) turned out to be 53%. In addition, the “herbicidal activity against MATIN found” value in the test on MATIN (setting [7]) came to 50%. Moreover, the “herbicidal activity against GERDI found” value is listed as 20% in the test with GERDI (setting [8]); 35% in the test on GERDI (setting [5]); 20% in the test on GERDI (Example 5, compound (I) 15.625 g/ha a.s. alone). Further, the “herbicidal activity against AVEFA found” value in the test on AVEFA (setting [7]) was 0%. Moreover, the “herbicidal activity against ALOMY found” value in the test on ALOMY (setting [8]) is on record as 0%. For the same molecule, the “herbicidal activity against POLCO found” value is given as 60% in the test on POLCO (setting [3]); 50% in the test with POLCO (setting [4]); 73% with POLCO (Example 10, compound (I) 62.5 g/ha a.s. alone). Further, the “herbicidal activity against GALAP found” value in the test on GALAP (Example 9, compound (I) 15.63 g/ha a.s. alone) is on record as 73%.
`C#CCN1C(=O)C(F)(F)Oc2cc(F)c(-n3c(=O)n(C)c(=S)n(C)c3=O)cc21` [trifludimoxazin, 1,5-dimethyl-6-thioxo-3-(2,2,7-trifluoro-3-oxo-4-(prop-2-ynyl)-3,4-dihydro-2H-benzo[b][1,4]oxazin-6-yl)-1,3,5-triazinane-2,4-dione]: the “herbicidal activity against STEME found” value in the test on STEME [1] (setting [9]) turned out to be 80%; in the test on STEME [1] (setting [10]), 80%; in the test with STEME [2] (setting [12]), 90%. In addition, the “herbicidal activity against LOLMU found” value with LOLMU (Example 4, trifludimoxazin 9 g/ha a.s. alone) was 65%. Besides, in the test on LAMPU (setting [11]), the “herbicidal activity against LAMPU found” value amounted to 98%. Moreover, the “herbicidal activity against IPOHE found” value in the test with IPOHE (setting [12]) is listed as 97%. The “herbicidal activity against MATIN found” value in the test on MATIN (setting [13]) was found to be 90%. The “herbicidal activity against GERDI found” value in the test on GERDI (setting [14]) is 75%; in the test with GERDI (setting [11]), 0%; with GERDI (Example 5, trifludimoxazin 4.5 g/ha a.s. alone), 0%. Also, in the test on AVEFA (setting [13]), the “herbicidal activity against AVEFA found” value is on record as 35%. For the same molecule, the “herbicidal activity against ALOMY found” value in the test on ALOMY (setting [14]) stood at 60%. Also, the “herbicidal activity against POLCO found” value in the test on POLCO (setting [9]) was 88%; in the test on POLCO (setting [10]) it was 88%; in the test with POLCO (Example 10, trifludimoxazin 0.25 g/ha a.s. alone), 88%. In addition, the “herbicidal activity against GALAP found” value in the test with GALAP (Example 9, trifludimoxazin 2 g/ha a.s. alone) came to 93%.
